The record followed here is patent publication US11464770B2, “Anticancer pharmaceutical composition” (NATIONAL CANCER CENTER, priority 2016, dated 2022).

Read-outs that look alike come from different tables or passages of the source.

The test system of test [1] is liver cancer cell lines. The experiment in a line: Cell based assay, cell viability (CellTiter-Glo), liver cancer cell lines. Particulars: Homo sapiens, SK-HEP1; SK-HEP-1 cell line. Put shortly: (§1)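 Cells were trypsinized, seeded, and left 24 h before compound was added at 0 to 2 μM final. After a further 72 h of culture, viability was read by ATP-based luminescence.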

The test system of test [2] is prostate cancer cell lines (e.g. DU145/TXR). The experiment in a line: Cell based assay, cell viability (CellTiter-Glo), prostate cancer cell lines. As to conditions: Homo sapiens, 72 hours treatment, final concentration 0 to 2 μM. Put shortly: as §1
Test [3] has as its system RT4: human urinary bladder transitional cell papilloma. The experiment in a line: Cell based assay, cytotoxicity in RT4 papilloma cells (selectivity). Particulars: Homo sapiens, RT-4; RT4 cells.
In test [4] the test system is bladder cancer cell lines. Put plainly: Cell based assay, cell viability (CellTiter-Glo), bladder cancer cell lines. As to conditions: 72 hours treatment, 0 to 2 μM, CellTiter-Glo. Put shortly:
as §1

The test system of test [5] is neuroblastoma cell lines. Put plainly: Cell based assay, cell viability (CellTiter-Glo), neuroblastoma cell lines. Particulars: Homo sapiens; SH-SY5Y cell line. Summed up:
as §1

Test [6] relates to ovarian cancer cell lines. The experiment in a line: Cell based assay, cell viability (CellTiter-Glo), ovarian cancer cell lines. As to conditions: Homo sapiens; OVCAR-3 cells. Put shortly:
as §1

[7] abbreviates: CWR22 cells, read-out: IC50, prostate cancer cell line CWR22.
Where [8] appears, read: DU-145, DU145/TXR cells, read-out: IC50, prostate cancer cell line DU145/TXR.
Setting [9] is: DU-145, DU145 cells, read-out: IC50, prostate cancer cell line DU145.
Where [10] appears, read: LNcap cells, read-out: IC50, prostate cancer cell line LNcap.
Setting [11] is: PC-3 cells, read-out: IC50, prostate cancer cell line PC-3.
Setting [12] is: 253J cells, read-out: IC50, bladder cancer cell line 253J.
Setting [13] is: 5637 cells, read-out: IC50, bladder cancer cell line 5637.
Setting [14] is: Homo sapiens, T-24, T24 cells, read-out: IC50, bladder cancer cell line T24.
Where [15] appears, read: Homo sapiens, UMUC3, UM-UC-3 cells, read-out: IC50, bladder cancer cell line UM-UC-3.
Where [16] appears, read: Homo sapiens, J82 cells, read-out: IC50, bladder cancer cell line J82.
Setting [17] is: Homo sapiens, KU-19-19 cells, read-out: IC50, bladder cancer cell line KU-19-19.
The mark [18] stands for this setting: MBT-2 cells, read-out: IC50, bladder cancer cell line MBT-2.

With `COCSc1[nH]c2c(Br)ccc(Cl)c2c(=O)c1C(C)=O` [Compound 61, 3-acetyl-8-bromo-5-chloro-2-((methoxymethyl)thio)quinolin-4(1H)-one], the IC50 in test [1], in test [2] (setting [7]), in test [2] (setting [8]), in test [2] (setting [9]), in test [2] (setting [10]) and in test [2] (setting [11]) was over 2000 nM each time. Also, the IC50 is over 10 µM in test [3]; over 2000 nM in test [4] (setting [12]); over 2000 nM in test [4] (setting [13]); over 2000 nM in test [4] (setting [14]); over 2000 nM in test [4] (setting [15]); over 2000 nM in test [4] (setting [16]). Besides, the IC50 in test [4] (setting [17]), in test [4] (setting [18]), in test [5] and in test [6] was over 2000 nM throughout.
On to `CC(=O)c1c(S)[nH]c2c(Br)ccc(Cl)c2c1=O` [Compound 62, 3-acetyl-8-bromo-5-chloro-2-mercaptoquinolin-4(1H)-one], for which the IC50 in test [1], in test [2] (setting [7]), in test [2] (setting [8]), in test [2] (setting [9]), in test [2] (setting [10]) and in test [2] (setting [11]) was over 2000 nM throughout. The IC50 in test [3] is over 10 µM; in test [4] (setting [12]) it was over 2000 nM; in test [4] (setting [13]), over 2000 nM; in test [4] (setting [14]), over 2000 nM; in test [4] (setting [15]) it was over 2000 nM; in test [4] (setting [16]), over 2000 nM. Besides, the IC50 in test [4] (setting [17]), in test [4] (setting [18]), in test [5] and in test [6] was over 2000 nM each time.
`CC(=O)c1c([S+]([O-])Cc2ccc(C(=O)c3ccccc3)cc2)[nH]c2c(Br)ccc(Cl)c2c1=O` (centres unmarked) [Compound 63, 3-acetyl-2-((4-benzoylbenzyl)sulfinyl)-8-bromo-5-chloroquinolin-4(1H)-one]: the IC50 in test [1] is over 2000 nM; in test [2] (setting [7]), over 2000 nM; in test [2] (setting [8]) it was over 2000 nM; in test [2] (setting [9]), over 2000 nM; in test [2] (setting [10]), over 2000 nM; in test [3], over 10 µM. For the same compound, the IC50 in test [4] (setting [12]), in test [4] (setting [13]), in test [4] (setting [14]), in test [4] (setting [16]), in test [5] and in test [6] was over 2000 nM in each case.
With `CC(=O)c1c([S+]([O-])CC#N)[nH]c2c(Br)ccc(Cl)c2c1=O` (centres unmarked) [Compound 65, 2-((3-acetyl-8-bromo-5-chloro-4-oxo-1,4-dihydroquinolin-2-yl)sulfinyl)acetonitrile], the IC50 in test [1], in test [2] (setting [7]), in test [2] (setting [8]), in test [2] (setting [9]), in test [2] (setting [10]) and in test [2] (setting [11]) was over 2000 nM throughout. In addition, the IC50 in test [3] is over 10 µM; in test [4] (setting [12]), over 2000 nM; in test [4] (setting [13]), over 2000 nM; in test [4] (setting [14]), over 2000 nM; in test [4] (setting [15]), over 2000 nM; in test [4] (setting [16]) it was over 2000 nM. The IC50 in test [4] (setting [17]), in test [4] (setting [18]), in test [5] and in test [6] was over 2000 nM in each case.
Take `CC(=O)c1c(SCC#N)[nH]c2c(Br)ccc(Cl)c2c1=O` [Compound 66, 2-((3-acetyl-8-bromo-5-chloro-4-oxo-1,4-dihydroquinolin-2-yl)thio)acetonitrile]: the IC50 in test [1], in test [2] (setting [7]), in test [2] (setting [8]), in test [2] (setting [9]), in test [2] (setting [10]) and in test [2] (setting [11]) was over 2000 nM throughout. Besides, the IC50 in test [3] was over 10 µM; in test [4] (setting [12]) it was over 2000 nM; in test [4] (setting [13]), over 2000 nM; in test [4] (setting [14]), over 2000 nM; in test [4] (setting [15]) it was over 2000 nM; in test [4] (setting [16]), over 2000 nM. The IC50 in test [4] (setting [17]), in test [4] (setting [18]), in test [5] and in test [6] was over 2000 nM in each case.
Take `CC(=O)c1c(S/C=C\C(=O)O)[nH]c2c(Br)ccc(Cl)c2c1=O` [Compound 67, (Z)-3-((3-acetyl-8-bromo-5-chloro-4-oxo-1,4-dihydroquinolin-2-yl)thio)acrylic acid]: the IC50 in test [1], in test [2] (setting [7]), in test [2] (setting [8]), in test [2] (setting [9]), in test [2] (setting [10]) and in test [2] (setting [11]) was over 2000 nM each time. In addition, the IC50 in test [3] was over 10 µM; in test [4] (setting [12]), over 2000 nM; in test [4] (setting [13]) it was over 2000 nM; in test [4] (setting [14]) it was over 2000 nM; in test [4] (setting [15]), over 2000 nM; in test [4] (setting [16]), over 2000 nM. In addition, the IC50 in test [4] (setting [17]), in test [4] (setting [18]), in test [5] and in test [6] was over 2000 nM in each case.
Take `CC(=O)c1c([S+]([O-])Cc2ccc(S(F)(F)(F)(F)F)cc2)[nH]c2c(Br)ccc(Cl)c2c1=O` (centres unmarked) [Compound 68, 3-acetyl-8-bromo-5-chloro-2-((4-(pentafluoro-16-sulfanyl)benzyl)sulfinyl)quinolin-4(1H)-one]: the IC50 in test [1] was 860 nM; in test [2] (setting [7]) it was 1620 nM; in test [2] (setting [8]) it was 940 nM; in test [2] (setting [9]), 830 nM; in test [2] (setting [10]) it was over 2000 nM; in test [2] (setting [11]), 1240 nM. Besides, the IC50 in test [3] was over 10 µM; in test [4] (setting [12]), 970 nM; in test [4] (setting [13]), 1460 nM; in test [4] (setting [14]), 1470 nM; in test [4] (setting [15]), 1110 nM; in test [4] (setting [16]), 1490 nM. For the same compound, the IC50 in test [4] (setting [17]) was 1250 nM; in test [4] (setting [18]) it was 1070 nM; in test [5] it was over 2000 nM; in test [6] it was 1160 nM.
Take `CC(=O)c1c([S+]([O-])Cc2ccc(S(F)(F)(F)(F)F)cc2F)[nH]c2c(Br)ccc(Cl)c2c1=O` (centres unmarked) [Compound 69, 3-acetyl-8-bromo-5-chloro-2-((2-fluoro-4-(pentafluoro-16-sulfanyl)benzyl)sulfinyl)quinolin-4(1H)-one]: the IC50 in test [1] is 1040 nM; in test [2] (setting [7]) it was 1870 nM; in test [2] (setting [8]), 1110 nM; in test [2] (setting [9]), 1000 nM; in test [2] (setting [10]), over 2000 nM; in test [2] (setting [11]), 1300 nM. The IC50 was over 10 µM in test [3]; 1080 nM in test [4] (setting [12]); 1620 nM in test [4] (setting [13]); 1500 nM in test [4] (setting [14]); 1200 nM in test [4] (setting [15]); 1890 nM in test [4] (setting [16]). Moreover, the IC50 is 1500 nM in test [4] (setting [17]), 1260 nM in test [4] (setting [18]), over 2000 nM in test [5] and 1130 nM in test [6].
Turning to `CC(=O)c1c([S+]([O-])Cc2cccc(S(F)(F)(F)(F)F)c2)[nH]c2c(Br)ccc(Cl)c2c1=O` (centres unmarked) [Compound 77, 3-acetyl-8-bromo-5-chloro-2-((3-(pentafluoro--sulfanyl)benzyl)sulfinyl)quinolin-4(1H)-one], the IC50 in test [1] is 1090 nM; in test [2] (setting [7]), over 2000 nM; in test [2] (setting [8]), 930 nM; in test [2] (setting [9]) it was 930 nM; in test [2] (setting [10]), over 2000 nM; in test [2] (setting [11]), 1480 nM. The IC50 in test [3] is over 10 µM; in test [4] (setting [12]) it was 900 nM; in test [4] (setting [13]), 1680 nM; in test [4] (setting [14]), 1510 nM; in test [4] (setting [16]) it was 1620 nM; in test [5], over 2000 nM. For the same compound, the IC50 in test [6] amounted to 1130 nM.
Regarding `CC(=O)c1c([S+]([O-])Cc2ccc(SC(F)(F)F)cc2)[nH]c2c(Cl)ccc(Cl)c2c1=O` (centres unmarked) [Compound 79, 3-acetyl-5,8-dichloro-2-((4-((trifluoromethyl)thio)benzyl)sulfinyl)quinolin-4(1H)-one], the IC50 in test [1] was over 2000 nM; in test [2] (setting [7]), over 2000 nM; in test [2] (setting [8]) it was over 2000 nM; in test [2] (setting [9]), over 2000 nM; in test [2] (setting [10]), over 2000 nM; in test [3] it was over 10 µM. The IC50 in test [4] (setting [12]), in test [4] (setting [13]), in test [4] (setting [14]), in test [4] (setting [16]), in test [5] and in test [6] was over 2000 nM in each case.
Regarding `CC(=O)c1c([S+]([O-])Cc2ccc(S(F)(F)(F)(F)F)cc2)[nH]c2c(F)ccc(F)c2c1=O` (centres unmarked) [Compound 80, 3-acetyl-5,8-difluoro-2-((4-(pentafluoro--sulfanyl)benzyl)sulfinyl)quinolin-4(1H)-one], the IC50 in test [1] is over 2000 nM; in test [2] (setting [7]), over 2000 nM; in test [2] (setting [8]) it was over 2000 nM; in test [2] (setting [9]) it was over 2000 nM; in test [2] (setting [10]) it was over 2000 nM; in test [3] it was over 10 µM. For the same compound, the IC50 in test [4] (setting [12]), in test [4] (setting [13]), in test [4] (setting [14]), in test [4] (setting [16]), in test [5] and in test [6] was over 2000 nM each time.
